In ChEMBL document CHEMBL1201862, “PubChem BioAssay data set” (2004):
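Step 1: Grow cells in 96-well plates. Step 2: Expose to compound for 48 hours at 5 concentrations. Step 3: Interpolate endpoints linearly; if unreached, use highest concentration. GI50 is the concentration that inhibits growth by half.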 Calls of active or inactive are those of the source. Cut-off read from the data, not from the text of the source: active = GI50 up to about 1.1 µM and inactive = higher. *1 amine or outer side, *2 acyl side, *3 side chain or, on linkers, in order; H or OH if unused. Where a SMILES comes first, the peptide text is derived from it. [ ]: non-standard residue; d: D form. The star is where a group is joined. ξ: configuration not given here. X43 = CCC(=O)CC(O)CC(C)CC(N[*:1])C(=O)[*:2]; ξLeu(3ξ-OH) = CC(C)C(O)C(N)C(=O)O; ξPro(4ξ-Me) = CC1CNC(C(=O)O)C1; X42 = CCC(C)/C=C/C(=O)*; Aib = CC(C)(N)C(=O)O; X44 = CC(CN(C)C)N*; βAla = NCCC(=O)O

Experiments:
Assay in all cases: growth of human tumour cells (NCI), 48 h
DU-145 = tested on: DU-145
SK-MEL-5 = tested on: SK-MEL-5
IGROV-1 = tested on: IGROV-1
HCT-15 = tested on: HCT-15
SF-268 = tested on: SF-268
HT-29 = tested on: HT-29
CAKI-1 = tested on: CAKI-1
NCI/ADR-RES = tested on: NCI/ADR-RES
SF-295 = tested on: SF-295
COLO 205 = tested on: COLO 205
TK-10 = tested on: TK-10
RXF 393 = tested on: RXF 393
OVCAR-8 = tested on: OVCAR-8
SNB-19 = tested on: SNB-19
UACC-62 = tested on: UACC-62
EKVX = tested on: EKVX
SNB-75 = tested on: SNB-75
HOP-62 = tested on: HOP-62
CCRF-CEM = tested on: CCRF-CEM
BT-549 = tested on: BT-549

Structure (SMILES)	GI50 (DU-145)	GI50 (SK-MEL-5)	GI50 (IGROV-1)	GI50 (HCT-15)	GI50 (SF-268)	GI50 (HT-29)	GI50 (CAKI-1)	GI50 (NCI/ADR-RES)	GI50 (SF-295)	GI50 (COLO 205)	GI50 (TK-10)	GI50 (RXF 393)	GI50 (OVCAR-8)	GI50 (SNB-19)	GI50 (UACC-62)	GI50 (EKVX)	GI50 (SNB-75)	GI50 (HOP-62)	GI50 (CCRF-CEM)	GI50 (BT-549)
COC(=O)C1Cc2cc3c(cc2C1)CCC3	> 100 µM (inactive)	> 100 µM (inactive)	> 100 µM (inactive)	> 100 µM	> 100 µM (inactive)	68.9 µM (inactive)	> 100 µM (inactive)	> 100 µM (inactive)	> 100 µM (inactive)	> 100 µM (inactive)	3.65 µM (inactive)	> 100 µM (inactive)	> 100 µM (inactive)	> 100 µM (inactive)	> 100 µM (inactive)	> 100 µM (inactive)	> 100 µM (inactive)	> 100 µM (inactive)	> 100 µM (inactive)	> 100 µM (inactive)
C[C@]12CCC3c4ccc(O)cc4CC[C@H]3C1CC(=O)N(CCN1CCCC1)C2=O (stereo not given in full)	> 10 µM (inactive)	> 10 µM (inactive)	> 10 µM (inactive)	> 10 µM	> 10 µM (inactive)	> 10 µM (inactive)	> 10 µM (inactive)	> 10 µM (inactive)	> 10 µM (inactive)	> 10 µM (inactive)	> 10 µM (inactive)	> 10 µM (inactive)	> 10 µM (inactive)	> 10 µM (inactive)	> 10 µM (inactive)	> 10 µM (inactive)	7.96 µM (inactive)	> 10 µM (inactive)	> 10 µM (inactive)	> 10 µM (inactive)
c1ccc(/N=C2\c3ccccc3CN2c2ccccc2)cc1	> 100 µM (inactive)	> 100 µM (inactive)	> 100 µM (inactive)	> 100 µM	> 100 µM (inactive)	> 100 µM (inactive)	> 100 µM (inactive)	> 100 µM (inactive)	> 100 µM (inactive)	> 100 µM (inactive)	> 100 µM (inactive)	> 100 µM (inactive)	> 100 µM (inactive)	> 100 µM (inactive)	> 100 µM (inactive)	> 100 µM (inactive)	74.3 µM (inactive)	> 100 µM (inactive)	> 100 µM (inactive)	> 100 µM (inactive)
CCC(=O)CC(O)CC(C)CC(NC(=O)C1CC(C)CN1C(=O)/C=C/C(C)CC)C(=O)NC(C(=O)NC(C)(C)C(=O)NC(CC(C)C)C(=O)NC(CC(C)C)C(=O)NC(C)(C)C(=O)NC(C)(C)C(=O)NCCC(=O)NC(C)CN(C)C)C(O)C(C)C (stereo not given) (X42-[ξPro(4ξ-Me)][X43][ξLeu(3ξ-OH)][Aib]LL[Aib][Aib][βAla]-X44; configuration not given here)	0.351 µM (active)	< 0.005 µM (active)	0.0746 µM (active)	5.4 µM	0.0526 µM (active)	0.0728 µM (active)	1.19 µM (inactive)	7.08 µM (inactive)	0.0255 µM (active)	0.0131 µM (active)	0.345 µM (active)	0.38 µM (active)	< 0.005 µM (active)	0.0115 µM (active)	0.268 µM (active)	< 0.005 µM (active)	0.0165 µM (active)	0.151 µM (active)	< 0.005 µM (active)	0.29 µM (active)
